Results reported in patent publication US20130172346A1, “USE OF KYNURENIC ACID AMIDE DERIVATIVES FOR THE TREATMENT OF HUNTINGTON'S DISEASE” (priority 2010, published 2013).
Entries after “also recorded” stand apart in the source; their conditions may differ.

Columns and labels:
N171-82Q transgenic mice [1] = assay: Survival test in N171-82Q transgenic mouse model of Huntington's disease; assay type: in vivo; details: p=0.016
Source text: (§1) The transgenic N171-82Q mice were originally obtained from Jackson Laboratories (Bar Harbor, Me., United States), later we have propagated them in our laboratories by using B6C3F1 background strains. The progeny were genotyped by PCR technique from tail-DNA. The animals were kept in transgenic cages under standard laboratory conditions (up to 5 animals/cage), and had free access to water and food. Male and female transgenic and wild type animals respectively, were equally allotted to the individual test groups. The transgenic animals were injected intraperitoneally (5 ml/kg of body weight) every day at the same time with 2-(2-N,N-dimethylaminoethylamino-1-carbonyl)-1H-quinolin-4-one hydrochloride (at a dose of 100 mg/kg of body weight, dissolved in distilled water, pH was adjusted to 6.5 with 1N NaOH). The control transgenic and wild animals, respectively obtained a salt solution comprising 0.1 M of phosphate buffer (PBS) (5 ml/kg of body weight). The animals were inoculated in the first 5 days of the week starting from the age of 7 weeks.
The transgenic animals were inoculated as disclosed above with 2-(2-N,N-dimethylamino-ethylamino-1-carbonyl)-1H-quinolin-4-one hydrochloride (n=10), and the transgenic animals serving as a control, were inoculated with 0.1 M PBS (n=10) until the animals perished. As negative control wild type animals, treated with 0.1M PBS were used (n=10).
(§2) The statistical analysis of our data was performed by using Statistica software (StatSoft Inc., (2008) STATISTICA version 8.0.; www.statsoft.com). The analysis of the survival data was carried out by Kaplan-Meyer survival curves and Mantel-Cox log rank test. The normality of the data of the open-field test, the body weight measurement and the striatal cell volume measurement was first examined by Shapiro-Wilk W test. […] The significance level was determined at p<0.05. In case of normal distribution an average±S.E.M and in case of non-normal distribution the median and the interquartile range were used in order to depict the data

N171-82Q transgenic mice [2] = assay: Open-field test for examining motor activity (covered distance); assay type: in vivo, mouse
Source text: as §1
A test method almost identical with the method disclosed for the survival test was used with the exception of the number of animals (n=9, n=8, n=8 corresponding to the above group assignment). The spontaneous motor activity of the mice was tested once a week 2 hours after the given daily inoculation, always at the same day of the week. The animals stayed in the test unit (48×48×40 cm box open from above) for 5 minutes, the motor parameters were registered by the aid of Conducta 1.0 software (Experimetria Ltd., Budapest, Hungary). In order to characterize the motor activity, the parameter of the covered distance was selected and the data of the examined 9 weeks (between the age of 7 and 15 weeks) were evaluated as follows: an average of the first, second, third 3 weeks was calculated for each test group and the three test groups were compared according to the obtained average values.
as §2

[3] = system: neurons of the striatum of N171-82Q transgenic mice; assay: Immunohistochemistry with cell volume estimation of striatal neurons; assay type: in vivo, mouse; details: 100 mg/kg i.p.
Source text: as §1
(§3) The body weight of the animals was measured once a week, always at the same day of the week and at the same time of the day, starting from the age of 7 weeks. […]

N171-82Q transgenic mice [4] = assay: Body weight measurements; assay type: in vivo, mouse; details: 100 mg/kg i.p., weekly measurement from age of 7 weeks; p=0.00022
Source text: as §1, §3

[5] = cited from earlier work
[6] = system: organic anion transporters; details: mediated by organic anion transporters; cited from earlier work

Compound | average survival time (N171-82Q transgenic mice [1]; N171-82Q transgenic mice, intraperitoneal, chronic, 100 mg/kg, n=10, control transgenic 111.3±6.6 days) [days] | survival compared to the control groups (Kaplan-Meier) (N171-82Q transgenic mice [1]; N171-82Q transgenic mice, FIG. 1) | improvement of average survival time (N171-82Q transgenic mice [1]; vs control transgenic animals, intraperitoneal, chronic, 100 mg/kg) [%] | covered distance, last 3 weeks (N171-82Q transgenic mice [2]; 100 mg/kg i.p., last 3 weeks of treatment, p=0.0094) | covered distance, second 3 weeks (N171-82Q transgenic mice [2]; 100 mg/kg i.p., second 3 weeks) | covered distance, first 3 weeks (N171-82Q transgenic mice [2]; 5 minutes, 2 hours after daily inoculation, 100 mg/kg i.p., first 3 weeks (from age of 7 weeks)) | covered distance in progress of time (N171-82Q transgenic mice [2]; N171-82Q transgenic mice, FIG. 2) | size (volume) of the neurons in the striatum ([3]; treated transgenic animals at age of 16 weeks, interquartile range 716.2-787.4, untreated transgenic 663.4, wild type 739.0) [μm^3] | atrophy of the neurons in the striatum ([3]; treated vs untreated N171-82Q transgenic animals, hydrochloride, 100 mg/kg) | body weight compared to the control transgenic animals (N171-82Q transgenic mice [4]) | solubility [5] | elimination from the brain and organism [6]
CN(C)CCNC(=O)c1cc(=O)c2ccccc2[nH]1.Cl [2-(2-N,N-dimethylaminoethylamino-1-carbonyl)-1H-quinolin-4-one hydrochloride] | 145.5 ± 12.0 | significantly increased | 30.7 | significant improvement | positive changes | has not improved | significant improvement | 744.5 | successfully prevented the atrophy; also recorded: prevented the development of atrophy | significantly increased | – | –
O=C(O)c1cc(=O)c2ccccc2[nH]1 [KYNA, kynurenic acid] | – | – | – | – | – | – | – | – | – | – | poor | rapidly eliminated
